Assay results as given in paper PMC4503722, “Novel Phenotypic Outcomes Identified for a Public Collection of Approved Drugs from a Publicly Accessible Panel of Assays” (PLoS ONE, 2015).
Like-named read-outs stand apart in the source and are kept apart here.

Tests used:
Experiment in all cases: cells
SW480 = type: cell-based; conditions: read-out: Basal_Viability ATP SW480
DLD-1 = type: cell-based; conditions: read-out: Basal_Viability ATP DLD-1
NCI-H716 cells = type: cell-based, Human; conditions: read-out: GLP 1 Secretion
[1] = system: endothelial tube formation in co-cultures of ECFCs and ADSCs treated with VEGF; type: cell-based, human; conditions: read-out: Anti-Angiogenesis
RKO = type: cell-based; conditions: read-out: Basal_Viability ATP RKO
HeLa cells = type: cell-based; conditions: read-out: CellCycle G2/M
INS-1E cells = type: cell-based, rat; conditions: read-out: Insulin Secretion
HT-29 = type: cell-based
Colo320 = type: cell-based; conditions: read-out: Basal_Viability ATP Colo 320
SNU-C1 = type: cell-based; conditions: read-out: Basal_Viability ATP SNU-C1
[2] = system: HCT116 cells treated with a GSK3β inhibitor; type: cell-based; conditions: read-out: GSK3b inh pretreated_Viability ATP HCT116
[3] = system: nuclear β-catenin in C2C12 cells; type: cell-based; conditions: read-out: Wnt Pathway
HCT116 = type: cell-based; conditions: read-out: Basal_Viability ATP HCT116
[4] = Homo sapiens, IC50 / EC50, NCI-H716
[5] = Homo sapiens, IC50 / EC50, endothelial tube area, ADSC/ECFC co-culture
[6] = Homo sapiens, HeLa, IC50 / EC50, HeLa
[7] = Rattus norvegicus, IC50 / EC50, INS-1E
[8] = Homo sapiens, HT-29, read-out: Basal_Viability ATP HT-29
[9] = Homo sapiens, HCT-116, GSK3b inhibitor pretreated
[10] = Mus musculus, C2C12, IC50 / EC50, C2C12 beta-catenin translocation
[11] = Homo sapiens, SW480, basal, SW480
[12] = Homo sapiens, DLD-1, basal, DLD-1
[13] = Homo sapiens, HeLa, S2 Table, HeLa, 20 = no response at highest concentration
[14] = Homo sapiens; basal; HT-29; read-out: Basal_Viability ATP HT-29
[15] = Homo sapiens, SNU-C1, basal, SNU-C1
[16] = Homo sapiens, HCT-116, HCT116 pretreated with GSK3b inhibitor
[17] = Mus musculus, C2C12, S2 Table, module primary assay, 20 / 20.1 codes per legend
[18] = Homo sapiens, HCT-116, basal, HCT116
[19] = read-out: Basal_Viability ATP HT-29
[20] = S2 Table, module primary assay, 20 / 20.1 codes per legend

CN(C)CCOC(c1ccccc1)c1ccc(Br)cc1 (stereo not drawn) [Bromazine]
IC50 (SW480; Homo sapiens, SW480, basal): > 20 µM | IC50 (DLD-1; Homo sapiens, DLD-1, basal): > 20 µM | EC50 (NCI-H716 cells; [4]): > 10 µM | IC50 [1, 5]: > 10 µM | IC50 (RKO; Homo sapiens, RKO): > 20 µM | EC50 (HeLa cells; [6]): > 10 µM | EC50 (INS-1E cells; [7]): 2.77 µM | IC50 (HT-29; [8]): 17 µM | IC50 (Colo320; Homo sapiens, COLO 320): > 20 µM | IC50 (SNU-C1; Homo sapiens, SNU-C1, basal): 3.1 µM | IC50 [2, 9]: > 20 µM | EC50 [3, 10]: > 10 µM | IC50 (HCT116; Homo sapiens, HCT-116, basal): > 20 µM

OC[C@H]1O[C@@H](n2cnc3c(S)ncnc32)[C@H](O)[C@@H]1O [Thioinosine]
IC50 (SW480; [11]): 0.0287 µM | IC50 (DLD-1; [12]): 0.063 µM | EC50 (NCI-H716 cells; Homo sapiens, NCI-H716): > 10 µM | IC50 ([1]; Homo sapiens): 1.42 µM | IC50 (RKO; Homo sapiens, basal, RKO): 0.0144 µM | EC50 (HeLa cells; [13]): > 10 µM | EC50 (INS-1E cells; Rattus norvegicus, INS-1E): > 10 µM | IC50 (HT-29; [14]): 0.118 µM | IC50 (Colo320; Homo sapiens, basal, Colo 320): 1.06 µM | IC50 (SNU-C1; [15]): 2.19 µM | IC50 [2, 16]: 0.504 µM | EC50 [3, 17]: > 10 µM | IC50 (HCT116; [18]): 0.0286 µM

CC(=O)O[C@@]12CO[C@@H]1C[C@H](O)[C@@]1(C)C(=O)[C@H](O)C3=C(C)[C@@H](OC(=O)[C@H](O)[C@@H](NC(=O)OC(C)(C)C)c4ccccc4)C[C@@](O)([C@@H](OC(=O)c4ccccc4)[C@H]21)C3(C)C [docetaxel]
IC50 (SW480; Homo sapiens, SW480, basal): 0.001 µM | IC50 (DLD-1; Homo sapiens, DLD-1, basal): 8.2 µM | EC50 (NCI-H716 cells; [4]): > 10 µM | IC50 [1, 5]: 0.001 µM | IC50 (RKO; Homo sapiens, RKO): 0.001 µM | EC50 (HeLa cells; [6]): 0.00335 µM | EC50 (INS-1E cells; [7]): > 10 µM | IC50 (HT-29; Homo sapiens, HT-29; read-out: Basal_Viability ATP HT-29): 0.001 µM | IC50 (Colo320; Homo sapiens, COLO 320): 0.001 µM | IC50 (SNU-C1; Homo sapiens, SNU-C1, basal): > 20 µM | IC50 [2, 9]: 0.001 µM | EC50 [3, 10]: 0.0652 µM | IC50 (HCT116; Homo sapiens, HCT-116, basal): 0.001 µM

CCC(COC(=O)c1cc(OC)c(OC)c(OC)c1)(c1ccccc1)N(C)C (stereo not drawn)
IC50 (SW480): > 20 µM | IC50 (DLD-1): > 20 µM | EC50 (NCI-H716 cells): > 10 µM | IC50 [1]: > 10 µM | IC50 (RKO): 0.142 µM | EC50 (HeLa cells): > 10 µM | EC50 (INS-1E cells): > 10 µM | IC50 (HT-29; [19]): > 20 µM | IC50 (Colo320): > 20 µM | IC50 (SNU-C1): 2.45 µM | IC50 [2]: 1.61 µM | EC50 [3]: > 10 µM | IC50 (HCT116): > 20 µM

O=C(c1cc(O)c(O)c(O)c1)c1ccc(O)c(O)c1O [Hexahydro-2,3,4,3',4',5'-benzophenone]
IC50 (SW480; basal): 9.95 µM | IC50 (DLD-1; basal): 11.9 µM | EC50 (NCI-H716 cells; IC50 / EC50, NCI-H716): > 10 µM | IC50 ([1]; IC50 / EC50, endothelial tube area, ADSC/ECFC co-culture): > 10 µM | IC50 (RKO; basal): 0.192 µM | EC50 (HeLa cells; IC50 / EC50, HeLa): > 10 µM | EC50 (INS-1E cells; IC50 / EC50, INS-1E): > 10 µM | IC50 (HT-29; basal; read-out: Basal_Viability ATP HT-29): 9.45 µM | IC50 (Colo320; basal): 9.38 µM | IC50 (SNU-C1; basal): 12.8 µM | IC50 ([2]; GSK3b inhibitor pretreated): 0.0691 µM | EC50 ([3]; IC50 / EC50, C2C12 beta-catenin translocation): > 10 µM | IC50 (HCT116; basal): 16.3 µM

Fc1ccc(C(OCCN2CCN(CCCc3ccccc3)CC2)c2ccc(F)cc2)cc1
IC50 (SW480; basal, SW480): 2.07 µM | IC50 (DLD-1; basal, DLD-1): 0.903 µM | EC50 (NCI-H716 cells; [20]): > 10 µM | IC50 ([1]; S2 Table, module primary assay, 20 = no response at highest concentration, 20.1 = inactive in single concentration testing): > 10 µM | IC50 (RKO; basal, RKO): 0.113 µM | EC50 (HeLa cells; S2 Table, HeLa, 20 = no response at highest concentration): > 10 µM | EC50 (INS-1E cells; [20]): > 10 µM | IC50 (HT-29; basal; HT-29; read-out: Basal_Viability ATP HT-29): 1.49 µM | IC50 (Colo320; basal, Colo 320): > 20 µM | IC50 (SNU-C1; basal, SNU-C1): 1.82 µM | IC50 ([2]; HCT116 pretreated with GSK3b inhibitor): 2.85 µM | EC50 [3, 20]: > 10 µM | IC50 (HCT116; basal, HCT116): 4.87 µM

O=C1C(I)=CC(=C(c2cc(I)c(O)c(I)c2)c2ccccc2C(=O)O)C=C1I [Iodotetragnost]
IC50 (SW480; [11]): 0.112 µM | IC50 (DLD-1; [12]): 0.0132 µM | EC50 (NCI-H716 cells; Homo sapiens, NCI-H716): > 10 µM | IC50 ([1]; Homo sapiens): > 10 µM | IC50 (RKO; Homo sapiens, basal, RKO): 0.0373 µM | EC50 (HeLa cells; [13]): > 10 µM | EC50 (INS-1E cells; Rattus norvegicus, INS-1E): > 10 µM | IC50 (HT-29; [8]): 5.73 µM | IC50 (Colo320; Homo sapiens, basal, Colo 320): 0.312 µM | IC50 (SNU-C1; [15]): 3.76 µM | IC50 [2, 16]: 0.054 µM | EC50 ([3]; Mus musculus, C2C12): > 20 µM | IC50 (HCT116; [18]): 0.384 µM

CCc1oc2ccccc2c1C(=O)c1cc(Br)c(O)c(Br)c1 [Benzbromarone]
IC50 (SW480; [11]): 1.74 µM | IC50 (DLD-1; [12]): 0.268 µM | EC50 (NCI-H716 cells; Homo sapiens, NCI-H716): > 20 µM | IC50 ([1]; Homo sapiens): > 10 µM | IC50 (RKO; Homo sapiens, basal, RKO): 0.131 µM | EC50 (HeLa cells; [13]): > 10 µM | EC50 (INS-1E cells; Rattus norvegicus, INS-1E): > 10 µM | IC50 (HT-29; [14]): 1.14 µM | IC50 (Colo320; Homo sapiens, basal, Colo 320): > 20 µM | IC50 (SNU-C1; [15]): 0.105 µM | IC50 [2, 16]: 0.0667 µM | EC50 [3, 17]: > 10 µM | IC50 (HCT116; [18]): 1.06 µM

O=C([O-])CN(CCN(CC(=O)[O-])CC(=O)O)CCN(CC(=O)[O-])CC(=O)O.[Gd+3] [Gadopentetic acid]
IC50 (SW480): 3.14 µM | IC50 (DLD-1): > 20 µM | EC50 (NCI-H716 cells): > 10 µM | IC50 [1]: > 10 µM | IC50 (RKO): 2.96 µM | EC50 (HeLa cells): > 10 µM | EC50 (INS-1E cells): > 10 µM | IC50 (HT-29; [19]): > 20 µM | IC50 (Colo320): > 20 µM | IC50 (SNU-C1): > 20 µM | IC50 [2]: 0.896 µM | EC50 [3]: > 10 µM | IC50 (HCT116): > 20 µM
